The text below walks through data of ChEMBL document CHEMBL3507680, “University of Dundee, Gates Library screen for HepG2 cell viability”.

The data set is described as follows: Human HepG2 cell viability assay in 384 well format. In kind it is toxicity, cell-based. On the set-up: dose 125 nL, time 70.5 hour; concentration not given beside the values. Particulars: HepG2 cells, read-out: Inhibition.
For the compound `CNC(=O)c1n[nH]c2c1C(c1cccc3[nH]ccc13)CC(=O)N2` (stereo not given), the cytotoxicity at 70.5 h was -3.23%.
As for `Cc1cc(S(=O)(=O)NC(C)(C)CN)c(F)cc1F`, the figure is -9.88%; as for `CCOCC1CN(C(=O)c2ccco2)Cc2cnn(C)c21` (stereo not given), -2.81%; as for `CC(C)CNC(=O)CSc1nnc(OC(C)C)s1`, -10.7%.
As for `Cn1cccc(NC(=O)N2CCC(COCc3ccccc3)C2)c1=O` (stereo not given), the figure is 7.11%; as for `Cc1noc(C)c1C(=O)NCCSCc1cccs1`, 0.282%.
As for `Cc1cc(CN(C)C(C(=O)O)c2cccc(C(F)(F)F)c2)on1` (stereo not given), the figure is -7.95%; as for `COCc1nc2ncc3c(=O)n(-c4ccc(C(C)=O)cc4)ccc3n2n1`, -10.8%.
`CN(Cc1cc(Br)cn1C)C(=O)c1ccsc1`: the cytotoxicity at 70.5 h is -7.08%.
As for `Cc1noc2ncc(C(=O)NCC3CCN(C(C)C)C3)cc12` (stereo not given), the figure is -4.09%; as for `O=C1CCCN1C(CNS(=O)(=O)C1CC1)Cc1cccc(F)c1` (stereo not given), -15.5%; as for `O=C(c1cc(C2CC2)no1)N1C[C@H]2CC[C@@H]1CN(Cc1ccccn1)C2`, -14.9%.
As for `CNS(=O)(=O)c1ccc(CCC(=O)NCc2cccc(OC)c2)cc1`, the figure is -0.152%.
As for `CCN(CC)[C@@H]1CN(Cc2cnn(C)c2)[C@@H]2COC[C@H]12`, the figure is -5.97%; as for `N#Cc1ccccc1CN1C[C@@H]2CC[C@H](C1)N(Cc1cscn1)C2=O`, -11.1%.
Take `COc1ccc(C(C)NC(=O)N2CCNC(=O)CC2)cc1F` (stereo not given): the cytotoxicity at 70.5 h is -1.24%.
As for `c1ccc(CNc2cc(C3CCCNC3)ccn2)nc1` (stereo not given), the figure is 20.2%; as for `CNc1ccc(CC2CCCN(Cc3c[nH]cn3)C2)nn1` (stereo not given), -3.24%; as for `Cc1csc(C2(NCC(O)COc3ccc(F)cc3)CCC2)n1` (stereo not given), -0.482%.
Regarding `O=C(CCNC(=O)c1ccoc1)Nc1cc(F)ccc1F`, the cytotoxicity at 70.5 h was -5.4%.
As for `COc1ccc(N2Cc3nc(=O)n(Cc4cccc(F)c4)n3C2=O)cc1`, the figure is -13%; as for `Cc1ccccc1CN(C)C(=O)CN1CCCC(Cn2cncn2)C1` (stereo not given), -6.64%.
As for `CC(=O)N1CCC2(CC1)CNc1ccc(F)cc12`, the figure is -5.28%; as for `O=C(NCc1nnc2n1CCCCC2)N(Cc1ccccn1)C1CC1`, 0.752%; as for `Cc1nc(CN2CCc3ncnc(-c4ccc(F)cc4)c3CC2)cs1`, -4.74%.
As to `O=C(Nc1ccccc1)C1=NOC2(CCNCC2)C1`, the cytotoxicity at 70.5 h is -6.36%.
As for `O=C(Nc1nc2c(s1)CCC2)c1cccnc1N1CCOCC1`, the figure is -0.827%; as for `Cc1cc(C(=O)N2C[C@H]3CCC[C@@]3(CO)C2)c2ccc(F)cc2n1`, -1.1%.
As for `Cc1noc(C)c1CNC(=O)N1CCC(Cc2cnn(C)c2)C1` (stereo not given), the figure is -3.98%.
As for `Cc1ccc(C)c2c(=O)cc(CN3CC[C@@H](N)[C@H](O)C3)[nH]c12`, the figure is -3.81%.
As for `CCN(Cc1cnn(C)c1)C(=O)c1ccccc1O`, the cytotoxicity at 70.5 h was -6.92%.
As for `COc1c(Cl)cc(C(=O)NCCNc2ncccn2)cc1Cl`, the figure is 20.5%; as for `Cc1cc(C)c2nc(CN3CC[C@@H](O)C3)cc(O)c2c1`, -4.35%; as for `Cc1nc(C2(O)CCCNCC2)sc1CCOc1ccccc1` (stereo not given), -9.24%.
As for `Cc1cnc(NC(=O)N2CCCC2)s1`, the figure is -12%.
With `Cc1cc(NC(=O)N2CCOC(C(N)=O)C2)ccc1Br` (stereo not given), the cytotoxicity at 70.5 h was -12.3%.
As for `O=C(NCCC1CCCCO1)c1cc(COc2cncc(Cl)c2)on1` (stereo not given), the figure is 14.4%; as for `CC(C)n1c2ccccc2c2c1cc(C(=O)N(C)C)n2C`, 16.4%; as for `Cc1cnn(CC(=O)NC2CCCc3cc(OC(F)F)ccc32)c1` (stereo not given), -6.6%.
As for `COc1cc(-c2nc3c([nH]2)CCCNC3=O)ccc1O`, the cytotoxicity at 70.5 h worked out at 5.51%.
As for `Cc1cccc(C)c1NC(=O)c1cccc(CN2CCCC2C)c1` (stereo not given), the figure is 3.17%.
For the compound `Cn1cc(CN2CCc3ccc(=O)n(Cc4ccncc4)c3CC2)cn1`, the cytotoxicity at 70.5 h was -7%.
As for `CCCc1nc(CN(CCO)Cc2cc(Br)ccc2F)no1`, the figure is -13.1%.
As to `CCN(CC1CN(Cc2c(C)noc2C)CCO1)c1cccnn1` (stereo not given), the cytotoxicity at 70.5 h was 12.5%.
As for `Cc1ccc(CN(Cc2cc(=O)n3cccc(C)c3n2)C(C)C)o1`, the figure is -14.3%; as for `Cc1nn(C)c2cnn(Cc3ccc(C(=O)N4CCCCC4)o3)c12`, -5.62%.
As for `O=C(CCn1c(=O)oc2ccccc21)NCC(O)c1ccccc1` (stereo not given), the figure is -3.91%; as for `O=S(=O)(NCC(O)c1cccs1)c1ccccc1Cl` (stereo not given), 11%; as for `CCOCC1CN(C(=O)c2cccc(C)n2)Cc2cnn(C)c21` (stereo not given), -11.5%.
As for `Nc1cc(N2CCC(c3cc(Cc4ccccc4)n[nH]3)CC2)ccn1`, the figure is 2.05%; as for `O=C(c1cscn1)N1CCC2(CCN(Cc3nccs3)CC2)CC1`, -14.7%.
As to `CC1CCC(N2CCC(NS(=O)(=O)CCCF)CC2)CC1` (stereo not given), the cytotoxicity at 70.5 h worked out at 7.59%.
As for `COc1cccc(CN2CCC(O)(c3ccc(C)cn3)CC2)c1OC`, the figure is 4.46%.
As for `CC(C)[C@H]1COC(=O)N1Cc1nnc(-c2ccccc2)o1`, the figure is -1.91%; as for `Clc1ccc(COCC2CCN(Cc3ccccn3)CC2)cc1`, -0.416%; as for `Nc1nccnc1C(=O)N1CCN(CCOc2ccccc2)CC1`, 20.7%.
As for `CN(C)S(=O)(=O)Nc1ccc(-n2nccc2C(F)(F)F)cc1`, the figure is 6.87%; as for `Cc1ccc(C(=O)N2CCCCC2CN(C)C)cc1` (stereo not given), 4.31%.
Consider `Cc1nn(C)c(C)c1CN(C)c1nc(C2CC2)nc2c(C)nn(C)c12`, for which the cytotoxicity at 70.5 h amounted to 29.7%.
As for `Cc1cc(C(=O)NC(C)Cc2ccc(N(C)C)cc2)n(C)n1` (stereo not given), the cytotoxicity at 70.5 h was -1.34%.
As for `Cc1cc(-c2ccc(=O)n(C3CCN(C(=O)C4CCC4)CC3)n2)c(C)o1`, the figure is 1.9%; as for `O=C(NCc1ccccc1-n1cccn1)N1CCN2CCCCC2C1` (stereo not given), 1.19%; as for `CCn1cc(C#N)c(=O)c2cc(Br)ccc21`, -13.9%.
As for `COc1cc(OC)cc(C(=O)NCc2nn(C)c3c2COCC3)c1`, the figure is 0.999%; as for `CN(C)CCN1CCN(Cc2cccs2)Cc2cccnc21`, -0.769%.
`CC(C)C(Sc1nnc(NC2CC2)s1)C(=O)NCc1cccnc1` (stereo not given): the cytotoxicity at 70.5 h is -15.5%.
As for `CC(NC(=O)N1CCC(c2ccccc2)CC1)c1nncn1C` (stereo not given), the figure is -3.28%; as for `CC(Oc1ccc(C(=O)NCCNS(C)(=O)=O)cn1)c1ccccc1` (stereo not given), -8.66%; as for `CN(C)Cc1noc2c1CN(Cc1ccc[nH]1)CC2`, -1.45%.
As for `Cc1csc(C(C)(C)NCc2ncc(-c3ccc(F)cc3)o2)n1`, the figure is -4.53%; as for `CC(C)Oc1ncccc1CNC(=O)N1CCOCC1`, -14.9%.
As for `CC(C)OC(=O)N1CCCC2(CCC(=O)N(CCc3c[nH]cn3)C2)C1` (stereo not given), the figure is -1.99%; as for `O=C(NCc1ccco1)[C@H]1CC[C@@H]2[C@@H](CCN2c2ncccn2)O1`, 12.4%.
Regarding `NC(=O)c1ccccc1NC(=O)CCN1CCN(c2ccccc2)CC1`, the cytotoxicity at 70.5 h is -9.88%.
For `CNC(=O)[C@H]1CO[C@H]2CCN(c3ncc(F)cn3)C[C@H]2C1`, the cytotoxicity at 70.5 h is -8.64%.
`CSCCCN1CC[C@@]2(O)CCN(c3ncccn3)C[C@H]2C1`: the cytotoxicity at 70.5 h was -2.32%.
As for `COCC(=O)N1CC[C@H]2N(C)CC[C@@]2(C(=O)Nc2ccccc2)CC1`, the figure is -20%; as for `CCC(CNC(=O)C1CCC1)(OC)c1ccccc1` (stereo not given), -1.73%; as for `CNC(=O)Cn1cc(Nc2cccc(F)c2C#N)cn1`, -32.8%.
As for `CCN1CCC(NN2CCN(C)CC2)CC1`, the figure is -4.47%; as for `CCc1ncc(C(=O)N2CCN(c3cnn(C)c(=O)c3)CC2)cn1`, -5.02%.
As for `O=C(Nc1ccccc1Cn1cccn1)N1CCC(N2CCCC2)C1` (stereo not given), the figure is -2.57%; as for `CCCS(=O)(=O)NCc1nc(C)cc(N2CCCC2)n1`, -5.66%; as for `CCC[C@H]1CN(c2nccc(OC)n2)C[C@@H]1NC(=O)C1CCOCC1`, -6.8%.
In the case of `CN(C)Cc1cncc2c1CCN(CC(=O)N(C)C)C2`, the cytotoxicity at 70.5 h stood at 10.2%.
`Cc1nnc(NCC(c2ccco2)N(C)C)c(C#N)c1C` (stereo not given): the cytotoxicity at 70.5 h was -4.51%.
As for `Cc1nc(Cn2c3c(ccc2=O)CCN(CC2CC2)CC3)cs1`, the figure is -2.72%.
As for `CC(NC(=O)NCCCO)c1ccc2c(c1)NC(=O)CO2` (stereo not given), the figure is -12%; as for `CN1CCC(c2nc3ccc(-c4ccccc4)cn3n2)CC1`, -3.45%; as for `CC(C)Cn1cnc(S(=O)(=O)Nc2cccnc2-n2cccn2)c1`, -1.98%.
As for `O=C(Cc1ccsc1)N1CCn2cc(Cn3cncn3)nc2C1`, the figure is 2.98%; as for `CC(C)C1=NOC(c2nc(-c3cccc(Cl)c3)no2)C1` (stereo not given), 8.08%.
Regarding `CCC(=O)N1CCC2(CC1)COc1ccccc1S(=O)(=O)N(C)C2`, the cytotoxicity at 70.5 h was -14.6%.
As for `CC(C)n1ncc2c1NC(=O)CC21C(=O)Nc2c(Cl)cc(Cl)cc21` (stereo not given), the figure is -8.73%.
As for `Cc1nc(C)n(C2CCCN(C(=O)c3nc(C)n4ccccc34)C2)n1` (stereo not given), the figure is -9.2%; as for `Cc1cc(C)n(C2CCCN(C(=O)c3cc(C(N)=O)cs3)C2)n1` (stereo not given), 0.983%.
`COCC(=O)N1CCc2nc(C(=O)Nc3cccnc3)sc2CC1`: the cytotoxicity at 70.5 h was -2.18%.
Regarding `O=C(c1ccc2c(c1)CCC2)N1CCN(c2ccc(Cl)cn2)CC1`, the cytotoxicity at 70.5 h is 6.01%.
As for `Cc1ncoc1C(=O)N1CCCC(c2ccc3c(N)nn(C)c3n2)C1` (stereo not given), the figure is -4.28%.
As for `COCC(=O)N1CC[C@@H](N2CCOCC2)[C@@H]1Cc1cccnc1`, the figure is -12.2%.
